Experimental data taken from patent EP0361977A2, “Peptides having T cell suppressor activity” (IMM[…] INSTITUTE, INC., priority 1988, dated 1990).
Where a SMILES comes first, the peptide text is derived from it. The star is where a group is joined. βNA = c1ccc2cc(N*)ccc2c1; NHcHex = C1CCC(N*)CC1; NHPh = c1ccc(N*)cc1; X1 = c1ccc(NN*)cc1; NHiPr = CC(C)N*; For = O=C*

Assays:
CEM cells = assay: Cyclic GMP assay in CEM cells; format: cell-based, human; conditions: for induction of intracellular cyclic GMP (active / inactive peptides): CEM cells, dose-response curves from 1 to 1000 micrograms/ml, Fig. 1, composite of 6 experiments, compared with thymopentin; for T cell suppressor activity: thymopentin-like activity, cyclic GMP assays on CEM cells
Description: This assay measures the ability of a peptide of this invention to bind to the cell membrane receptor of the intact CEM cell and selectively stimulate production of cyclic GMP, as does human thymopentin.
The CEM cell line was obtained from the American Type Culture Collection of Rockville, Md. CEM cells were freshly seeded and grown for 3 days with harvesting as described in T. Audhya et al, Arch. Biochem Biophys., 234: 167-177 (1984). The cells were washed 3 times in PBS and resuspended in RPMI 1640 at a concentration of 1.0 x 10⁷ cells/ml and were allowed to equilibrate at 37°C for 30 minutes before the addition of the test peptides (25 ul) and control peptides. The incubation was allowed to proceed in a shaking water bath for 4-5 minutes and was then terminated by addition of 1 ml ice-cold TCA (10 percent).
The cells in TCA were homogenized and sonicated to release cyclic nucleotide. The suspension was centrifuged at 3000 x g for 20 minutes at 4°C. The resulting precipitate was dissolved in 0.1 N NaOH to determine the protein content. TCA was removed from the supernatant fraction by extracting 4 times with 5 ml of water-saturated ET₂O. After the final extraction, the remaining traces of ether were removed by heating for 10 minutes in a 50°C water bath. After lyophilization the sample was reconstituted in 50 mM acetate buffer (pH 6.2) for radioimmunoassay of cyclic GMP.
For example, dose-response curves from 1 to 1000 micrograms/ml of peptide, were evaluated for each compound. […] A threshold activity was determined for each peptide tested. This is defined as the lowest concentration of the test peptide which induced an intracellular level of cyclic GMP greater than two standard deviations above the control. The controls had intracellular cyclic GMP values of less than 0.9 picomoles/ml (mean±standard deviation). Test results were considered positive if the level of cyclic GMP was greater than 2 times that determined for the parallel negative control. Active peptides had activity thresholds ranging from […].

MOLT-4 cells = assay: T cell helper activity, MOLT-4 T cell line (intracellular cGMP); format: cell-based, human; conditions: thymopentin-like; assay not described for these peptides
helper T cell activity = conditions: mice; cited from earlier work

Row | Compound | induction of intracellular cyclic GMP (active / inactive peptides) (CEM cells) | T cell suppressor activity (CEM cells) | T cell helper activity (MOLT-4 cells) | helper T cell activity in vivo (helper T cell activity)
1 | CC(C)[C@H](NC(=O)[C@H](CC(=O)O)NC(=O)[C@H](CCCCN)NC(=O)[C@@H](N)CCCNC(=N)N)C(=O)Nc1ccc2ccccc2c1 [Arg-Lys-Asp-Val-2-Naphthylamide, reference compound] (H-RKDV-βNA) | inactive | do not display T cell suppressor stimulatory activity of thymopentin |  | 
2 | CC(C)[C@H](NC(=O)[C@H](CC(=O)O)NC(=O)[C@H](CCCCN)NC(=O)[C@@H](N)CCCNC(=N)N)C(=O)Nc1ccccc1 [Arg-Lys-Asp-Val-Anilineamide] (H-RKDV-NHPh) | active |  |  | 
3 | Arg-Lys-Asp-Val-Dimethylamide [reference compound] | inactive | do not display T cell suppressor stimulatory activity of thymopentin |  | 
4 | Arg-Lys-Asp-Val-Piperidineamide | active |  |  | 
5 | CNC(=O)[C@@H](NC(=O)[C@H](CC(=O)O)NC(=O)[C@@H]1CCCN1C(=O)[C@H](CCCNC(=N)N)NC=O)C(C)C [Formyl-Arg-Pro-Asp-Val-Methylamide, N-formyl-Arg-Pro-Asp-Val-Methylamide] (For-RPDV-NHMe) |  | display both T cell suppressor and helper activities like thymopentin | display both T cell suppressor and helper activities like thymopentin | 
6 | CC(C)NC(=O)[C@@H](NC(=O)[C@H](CC(=O)O)NC(=O)[C@@H]1CCCN1C(=O)[C@@H](N)CCCNC(=N)N)C(C)C [Arg-Pro-Asp-Val-Isopropylamide] (H-RPDV-NHiPr) | active | display both T cell suppressor and helper activities like thymopentin | display both T cell suppressor and helper activities like thymopentin | 
7 | Arg-Pro-Asp-Val-Morpholinoamide [reference compound] |  | do not display T cell suppressor stimulatory activity of thymopentin |  | 
8 | CC(C)[C@H](NC(=O)[C@H](CC(=O)O)NC(=O)[C@H](CCCCN)NC(=O)[C@@H](N)CCCNC(=N)N)C(=O)NC1CCCCC1 [Arg-Lys-Asp-Val-Cyclohexylamide] (H-RKDV-NHcHex) | active |  |  | 
9 | CC(C)[C@H](NC(=O)[C@H](CC(=O)O)NC(=O)[C@H](CCCCN)NC(=O)[C@@H](N)CCCNC(=N)N)C(=O)NNc1ccccc1 [Arg-Lys-Asp-Val-Phenylhydrazide, Arg-Lys-Asp-Val-2-Phenylhydrazide] (H-RKDV-X1) | active |  |  | 
10 | CC(C)NC(=O)[C@@H](NC(=O)[C@H](CC(=O)O)NC(=O)[C@H](CCCCN)NC(=O)[C@@H](N)CCCNC(=N)N)C(C)C [Arg-Lys-Asp-Val-Isopropylamide, Arg-Lys-Asp-Val-2-propylamide] (H-RKDV-NHiPr) |  | display both T cell suppressor and helper activities like thymopentin | display both T cell suppressor and helper activities like thymopentin | 
11 | CCNC(=O)[C@@H](NC(=O)[C@H](CCC(=O)O)NC(=O)[C@@H]1CCCN1C(=O)[C@H](CCCNC(=N)N)NC(C)=O)C(C)C [Acetyl-Arg-Pro-Glu-Val-Ethylamide, reference compound] (Ac-RPEV-NHEt) |  | do not display T cell suppressor stimulatory activity of thymopentin |  | 
12 | Arg-Lys-Glu-Val-Tyr [SP-5] |  |  |  | stimulates helper T cell activity in vivo in mice
